# Values of other authors as cited in paper PMC10817174, “Integrated drug response prediction models pinpoint repurposed drugs with effectiveness against rhabdomyosarcoma” (PLOS ONE, 2024).
# Columns and labels:
# GDSC-SJCRH30 cell line = details: Table S2, published drug response ref Iorio et al. (2016); cited from earlier work
# GDSC-RD cell line = details: Table S2, published drug response ref Iorio et al. (2016); cited from earlier work
compound,measurement,setting,value
C/C(=C\c1csc(C)n1)[C@@H]1C[C@@H]2O[C@]2(C)CCC[C@H](C)[C@H](O)[C@@H](C)C(=O)C(C)(C)[C@@H](O)CC(=O)O1 [Epothilone-B],Iorio_SJCRH30,GDSC-SJCRH30 cell line,R
same,Iorio_RD,GDSC-RD cell line,R
CCc1nc(-c2cccc(C)c2)c(-c2ccnc(NC(=O)c3ccccc3)c2)s1 [TAK-715],Iorio_SJCRH30,GDSC-SJCRH30 cell line,R
same,Iorio_RD,GDSC-RD cell line,R
COc1cc(OC)cc(-c2ccc3ncc4ccc(=O)n(-c5ccc(N6CCNCC6)c(C(F)(F)F)c5)c4c3c2)c1 [JW-7-24-1],Iorio_SJCRH30,GDSC-SJCRH30 cell line,R
same,Iorio_RD,GDSC-RD cell line,R
CCc1c2c(nc3ccc(O)cc13)-c1cc3c(c(=O)n1C2)COC(=O)[C@]3(O)CC [SN-38],Iorio_SJCRH30,GDSC-SJCRH30 cell line,R
same,Iorio_RD,GDSC-RD cell line,R
COc1ccc(-c2cc3nccn3c(Nc3ncccc3C(N)=O)n2)cc1OC [BAY-61-3606],Iorio_SJCRH30,GDSC-SJCRH30 cell line,R
same,Iorio_RD,GDSC-RD cell line,R
O=C(O)c1ccc(-c2c[nH]c3ncc(-c4ccccc4)cc23)cc1C1CCCC1 [GSK-650394],Iorio_SJCRH30,GDSC-SJCRH30 cell line,R
same,Iorio_RD,GDSC-RD cell line,R
COc1cc(N2CCC(O)CC2)ccc1Nc1cc(Nc2ccccc2S(=O)(=O)C(C)C)c2cc[nH]c2n1 [MPS-1-IN-1],Iorio_SJCRH30,GDSC-SJCRH30 cell line,R
same,Iorio_RD,GDSC-RD cell line,R
C/C=C(/C)C(=O)O[C@H]1C(C)=C2[C@H]([C@@H]1OC(=O)CCCCCCC)[C@@](C)(OC(C)=O)C[C@H](OC(=O)CCC)[C@@]1(O)[C@H]2OC(=O)[C@@]1(C)O [Thapsigargin],Iorio_SJCRH30,GDSC-SJCRH30 cell line,R
same,Iorio_RD,GDSC-RD cell line,R
C[C@@H](N)c1ccc(C(=O)Nc2ccnc3[nH]ccc23)cc1 [Y-39983],Iorio_SJCRH30,GDSC-SJCRH30 cell line,R
same,Iorio_RD,GDSC-RD cell line,R
Cc1cccc(-c2[nH]c(C(C)(C)C)nc2-c2ccc3nccnc3c2)n1 [SB52334],Iorio_SJCRH30,GDSC-SJCRH30 cell line,R
same,Iorio_RD,GDSC-RD cell line,R
I-BET-151,Iorio_SJCRH30,GDSC-SJCRH30 cell line,R
same,Iorio_RD,GDSC-RD cell line,R
COC(=O)[C@H](CCSC)NC(=O)c1ccc(NC[C@@H](N)CS)cc1-c1ccccc1 [FTI-277],Iorio_SJCRH30,GDSC-SJCRH30 cell line,R
same,Iorio_RD,GDSC-RD cell line,R
COc1cccc2cc(-c3nc([C@H]4CC[C@H](C(=O)O)CC4)n4ncnc(N)c34)[nH]c12 [OSI-027],Iorio_SJCRH30,GDSC-SJCRH30 cell line,R
same,Iorio_RD,GDSC-RD cell line,R
CO[C@@H]1[C@H](N(C)C(=O)c2ccccc2)C[C@H]2O[C@]1(C)n1c3ccccc3c3c4c(c5c6ccccc6n2c5c31)C(=O)NC4 [Midostaurin],Iorio_SJCRH30,GDSC-SJCRH30 cell line,R
same,Iorio_RD,GDSC-RD cell line,R
CC(C)(C)c1nc(-c2cccc(NS(=O)(=O)c3c(F)cccc3F)c2F)c(-c2ccnc(N)n2)s1 [Dabrafenib],Iorio_SJCRH30,GDSC-SJCRH30 cell line,R
same,Iorio_RD,GDSC-RD cell line,R
CC(C)(C)c1cc(NC(=O)Nc2ccc(-c3cn4c(n3)sc3cc(OCCN5CCOCC5)ccc34)cc2)no1 [AC220],Iorio_SJCRH30,GDSC-SJCRH30 cell line,R
same,Iorio_RD,GDSC-RD cell line,R
CO[C@@]12[C@H](COC(N)=O)C3=C(C(=O)C(C)=C(N)C3=O)N1C[C@@H]1N[C@@H]12 [Mitomycin-C],Iorio_SJCRH30,GDSC-SJCRH30 cell line,R
same,Iorio_RD,GDSC-RD cell line,R
O=C(/C=C/c1ccc(CN(CCO)CCc2c[nH]c3ccccc23)cc1)NO [LAQ824],Iorio_SJCRH30,GDSC-SJCRH30 cell line,R
same,Iorio_RD,GDSC-RD cell line,R
COc1cc(O)c2c(c1)/C=C/C[C@H](O)[C@H](O)C(=O)/C=C\C[C@H](C)OC2=O [Oxozeaenol],Iorio_SJCRH30,GDSC-SJCRH30 cell line,R
same,Iorio_RD,GDSC-RD cell line,S
Cn1nnc2c(C(N)=O)ncn2c1=O [Temozolomide],Iorio_SJCRH30,GDSC-SJCRH30 cell line,R
same,Iorio_RD,GDSC-RD cell line,R
N#CC[C@H](C1CCCC1)n1cc(-c2ncnc3[nH]ccc23)cn1 [Ruxolitinib],Iorio_SJCRH30,GDSC-SJCRH30 cell line,R
same,Iorio_RD,GDSC-RD cell line,R
Cc1ccc(NC(=O)c2ccc(CN3CCN(C)CC3)cc2)cc1Nc1nc(-c2cccnc2)cs1 [Masitinib],Iorio_SJCRH30,GDSC-SJCRH30 cell line,R
same,Iorio_RD,GDSC-RD cell line,R
CN(C)C/C=C/C(=O)Nc1ccc(C(=O)Nc2cccc(Nc3ncc(Cl)c(-c4c[nH]c5ccccc45)n3)c2)cc1 [THZ-2-102-1],Iorio_SJCRH30,GDSC-SJCRH30 cell line,R
same,Iorio_RD,GDSC-RD cell line,R
COc1cc2c(Oc3ccc(NC(=O)C4(C(=O)Nc5ccc(F)cc5)CC4)cc3F)ccnc2cc1OCCCN1CCOCC1 [XL-880],Iorio_SJCRH30,GDSC-SJCRH30 cell line,R
same,Iorio_RD,GDSC-RD cell line,R
N#CC(c1ccnc(NCCc2cccnc2)n1)c1nc2ccccc2s1 (stereo not shown) [AS601245],Iorio_SJCRH30,GDSC-SJCRH30 cell line,R
same,Iorio_RD,GDSC-RD cell line,R
S=C(NCc1ccc2c(c1)OCO2)N1CCN(c2ncnc3c2oc2ccccc23)CC1 [MP470],Iorio_SJCRH30,GDSC-SJCRH30 cell line,R
same,Iorio_RD,GDSC-RD cell line,R
C#Cc1cccc(Nc2ncnc3cc(OC)c(OCCCCCCC(=O)NO)cc23)c1 [CUDC-101],Iorio_SJCRH30,GDSC-SJCRH30 cell line,R
same,Iorio_RD,GDSC-RD cell line,R
CCN1CCN(Cc2ccc(NC(=O)c3ccc(C)c(Oc4ccnc5[nH]ccc45)c3)cc2C(F)(F)F)CC1 [NG-25],Iorio_SJCRH30,GDSC-SJCRH30 cell line,R
same,Iorio_RD,GDSC-RD cell line,R
COc1cc([C@@H]2c3cc4c(cc3[C@@H](O[C@@H]3O[C@@H]5CO[C@@H](C)O[C@H]5[C@H](O)[C@H]3O)[C@H]3COC(=O)[C@H]23)OCO4)cc(OC)c1O [Etoposide],Iorio_SJCRH30,GDSC-SJCRH30 cell line,R
same,Iorio_RD,GDSC-RD cell line,R
CC(C)N(CCCNC(=O)Nc1ccc(C(C)(C)C)cc1)C[C@H]1O[C@@H](n2cc(Br)c3c(N)ncnc32)[C@H](O)[C@@H]1O [SGC0946],Iorio_SJCRH30,GDSC-SJCRH30 cell line,R
same,Iorio_RD,GDSC-RD cell line,R
CN(c1ncccc1CNc1nc(Nc2ccc3c(c2)CC(=O)N3)ncc1C(F)(F)F)S(C)(=O)=O [PF-562271],Iorio_SJCRH30,GDSC-SJCRH30 cell line,R
same,Iorio_RD,GDSC-RD cell line,R
OC[C@H](Cc1ccccc1)Nc1nc(Oc2ccc3c(c2)CCC3)nc2c1ncn2Cc1ccc(-c2ccccc2)cc1 [QS11],Iorio_SJCRH30,GDSC-SJCRH30 cell line,R
same,Iorio_RD,GDSC-RD cell line,R
Oc1cccc(-c2nc(N3CCOCC3)c3oc4ncccc4c3n2)c1 [PI-103],Iorio_SJCRH30,GDSC-SJCRH30 cell line,R
same,Iorio_RD,GDSC-RD cell line,R
COc1cc(N2CCN(C)CC2)ccc1Nc1nc(N)c(C(=O)c2c(Cl)cccc2Cl)s1 [XMD14-99],Iorio_SJCRH30,GDSC-SJCRH30 cell line,R
same,Iorio_RD,GDSC-RD cell line,R
C=CC(=O)Nc1cc(NC(=O)c2ccc(C)c(NC(=O)c3ccno3)c2)cc(C(F)(F)F)c1 [QL-XI-92],Iorio_SJCRH30,GDSC-SJCRH30 cell line,S
same,Iorio_RD,GDSC-RD cell line,S
CCCC(=O)OCc1ccc(OC(=O)/C=C(C)/C=C/C=C(C)/C=C/C2=C(C)CCCC2(C)C)cc1 [VNLG-124],Iorio_SJCRH30,GDSC-SJCRH30 cell line,R
same,Iorio_RD,GDSC-RD cell line,R
Cc1ccc(Nc2nccc(N(C)c3ccc4c(C)n(C)nc4c3)n2)cc1S(N)(=O)=O [Pazopanib],Iorio_SJCRH30,GDSC-SJCRH30 cell line,R
same,Iorio_RD,GDSC-RD cell line,R
Cc1ccc(F)c(NC(=O)Nc2ccc(-c3cccc4[nH]nc(N)c34)cc2)c1 [ABT-869],Iorio_SJCRH30,GDSC-SJCRH30 cell line,R
same,Iorio_RD,GDSC-RD cell line,R
Cc1cc([N+](=O)[O-])ccc1NS(=O)(=O)c1cc(Cl)ccc1Cl [FH535],Iorio_SJCRH30,GDSC-SJCRH30 cell line,R
same,Iorio_RD,GDSC-RD cell line,R
COc1ncc(-c2ccc3nccc(-c4ccnnc4)c3c2)cc1NS(=O)(=O)c1ccc(F)cc1F [GSK2126458],Iorio_SJCRH30,GDSC-SJCRH30 cell line,R
same,Iorio_RD,GDSC-RD cell line,R
CCn1c(-c2nonc2N)nc2c(C#CC(C)(C)O)ncc(OC[C@H]3CCCNC3)c21 [GSK690693],Iorio_SJCRH30,GDSC-SJCRH30 cell line,S
same,Iorio_RD,GDSC-RD cell line,R
Cc1cccc(-c2[nH]c(C(C)(C)C)nc2-c2ccc3c(c2)OCO3)n1 [SB-505124],Iorio_SJCRH30,GDSC-SJCRH30 cell line,R
same,Iorio_RD,GDSC-RD cell line,R
O=C(/C=C/c1cccnc1)NCCCCC1CCN(C(=O)c2ccccc2)CC1 [FK866],Iorio_SJCRH30,GDSC-SJCRH30 cell line,R
same,Iorio_RD,GDSC-RD cell line,R
O=C(NC(COc1ccc2[nH]c(=O)[nH]c2c1)c1ccccc1)c1cccn(Cc2ccc(F)c(F)c2)c1=O (stereo not shown) [KIN001-244],Iorio_SJCRH30,GDSC-SJCRH30 cell line,R
same,Iorio_RD,GDSC-RD cell line,R
Cc1ccc(-c2c(C(=O)CF)n(CCCO)c3ncnc(N)c23)cc1 [FMK],Iorio_SJCRH30,GDSC-SJCRH30 cell line,R
same,Iorio_RD,GDSC-RD cell line,R
O=c1[nH]c2ccccc2n1C1CCN(Cc2ccc(-c3nc4cc5[nH]cnc5cc4nc3-c3ccccc3)cc2)CC1 [AKT-inhibitor-VIII],Iorio_SJCRH30,GDSC-SJCRH30 cell line,R
same,Iorio_RD,GDSC-RD cell line,R
CNCc1ccc(-c2[nH]c3cc(F)cc4c3c2CCNC4=O)cc1 [AG-014699],Iorio_SJCRH30,GDSC-SJCRH30 cell line,R
same,Iorio_RD,GDSC-RD cell line,R
CCC1=C[C@@H]2CN(C1)Cc1c([nH]c3ccccc13)[C@@](C(=O)OC)(c1cc3c(cc1OC)N(C)[C@H]1[C@@](O)(C(=O)OC)[C@H](OC(C)=O)[C@]4(CC)C=CCN5CC[C@]31[C@@H]54)C2 [Vinorelbine],Iorio_SJCRH30,GDSC-SJCRH30 cell line,R
same,Iorio_RD,GDSC-RD cell line,R
O=S(=O)(O)c1ccc2cc(N=Nc3cc(S(=O)(=O)O)c4cccnc4c3O)ccc2c1 [NSC-87877],Iorio_SJCRH30,GDSC-SJCRH30 cell line,R
same,Iorio_RD,GDSC-RD cell line,R
CCN1CCN(Cc2ccc(NC(=O)c3ccc(C)c(/C=C/c4cnc5[nH]ccc5c4OC)c3)cc2C(F)(F)F)CC1 [HG-6-64-1],Iorio_SJCRH30,GDSC-SJCRH30 cell line,R
same,Iorio_RD,GDSC-RD cell line,R
CCc1cncnc1N1CCN(Cc2nc3ccc(C(F)(F)F)cc3[nH]2)CC1 [PF-4708671],Iorio_SJCRH30,GDSC-SJCRH30 cell line,R
same,Iorio_RD,GDSC-RD cell line,R
O=c1cc(CN2CCOCC2)occ1OCCCCCSc1ccnc2cc(C(F)(F)F)ccc12 [EHT-1864],Iorio_SJCRH30,GDSC-SJCRH30 cell line,R
same,Iorio_RD,GDSC-RD cell line,R
CCOc1cc2ncc(C#N)c(Nc3ccc(F)c(Cl)c3)c2cc1NC(=O)/C=C/CN(C)C [EKB-569],Iorio_SJCRH30,GDSC-SJCRH30 cell line,R
same,Iorio_RD,GDSC-RD cell line,R
